Consider 1 compound from US8431540B2, “Modified lysine-mimetic compounds” (Zealand Pharma A/S, priority 2005, dated 2013).

One series concerns Male CD-1 mice. In words: Calcium-induced arrhythmia model (time to AV block after CaCl2 infusion). The class given is in vivo. The settings on record: compound IV 3 min before CaCl2 infusion (100 mg/kg/min), saline control 62-78. The method, then:
Peptides suitable for administration to cardiac cells can be identified in an in vivo model of calcium-induced arrhythmias according to the model of Lynch et al. (1981) J Cardiovasc. Pharmacol. 3: 49-60. Male CD-1 mice are anaesthetized with Ketamine (75 mg/kg) and medetomidine (1 mg/kg) IP. An i.v. cannula is inserted into the tail vein. A lead II ECG signal is recorded continuously by positioning stainless steel ECG electrodes on the right forelimb and […]. The ground electrode is placed on the right hind limb. The signal is amplified and filtered using Gould physiograph components and po-ne-mah data acquisition software. After a 90 sec equilibration period test compound is injected into the tail vein (over 30 seconds). Mice pre-treated with vehicle are tested as control animals. The injection volume is 100 μl/30 g mice in all experiments. Infusion of CaCl2 (30 mg/mL, 0.1 mL/min/30 g mice, 100 mg/kg/min) is started 3 min after IV administration of drug or vehicle (0.9% saline). The time lag to onset of cardiac conduction block is determined as the time from the start of CaCl2 infusion until the first arrhythmic event occurred. The first conduction block is defined as the first RR-interval, larger than or equal to 3 times one RR-interval from the pre-treatment period. The first arrhythmic event occurring is either a second degree AV-block (intermittent failure of the AV conduction characterized by a P-wave without the concomitant QRS complex) or a second degree SA block (prolonged RR-interval and a QRS-complex without a preceding P-wave). Responses are expressed relative to the time until 2nd degree AV-block occurred in vehicle treated mice.
The anti-arrhythmic effect of compounds according to the present teachings was tested in a model of calcium-induced arrhythmias according to the model of Lynch et al., J. Cardiovasc. Pharmacol. (1981), 3: 49-60. Male CD-1 mice were anaesthetized with Ketamine (75 mg/kg) and medetomidine (1 mg/kg) IP. An i.v. cannula was inserted into the tail vein. A lead II ECG signal was recorded continuously by positioning stainless steel ECG electrodes on the right forelimb and […]. The ground electrode was placed on the right hind limb. The signal was amplified and filtered using Gould physiograph components and po-ne-mah data acquisition software. After a 90 sec equilibration period test compound was injected into the tail vein (over 30 seconds). Mice pre-treated with vehicle (0.9% saline) were tested as control animals. The injection volume was 100 μl/30 g mice in all experiments. Infusion of CaCl2 (30 mg/mL, 0.1 mL/min/30 g mice, 100 mg/kg/min) was started 3 min after IV administration of drug or vehicle. The time lag to onset of cardiac conduction block was determined as the time from the start of CaCl2 infusion until the first arrhythmic event occurred. The first conduction block was defined as the first RR-interval, larger/or equal to, 3 times one RR-interval from the pre-treatment period. The first arrhythmic event occurring was either a second degree AV-block (intermittent failure of the AV conduction characterized by a P-wave without the concomitant QRS complex) or a second degree SA block (prolonged RR-interval and a QRS-complex without a preceding P-wave).
Mice pre-treated with vehicle (0.9% saline) were tested on all days as a measure for control level in untreated animal. Injection volume was 100 μL in all experiments. The time lag to onset of arrhythmias was determined as the time from the start of CaCl2 infusion until the first event of conduction block defined as intermittent failure of the SA or AV conduction characterized by delayed P-wave activation (SA block) or by a P-wave without the concomitant QRS complex (AV block). The time lag to onset of AV block is given below in Table 2.

Series [1] relates to dogs subjected to a 60-min coronary artery occlusion and 4 hr reperfusion. In words: Canine infarct size and reperfusion arrhythmia model. It counts as in vivo. The settings on record: dog, two highest doses; for Total incidence of VT: IV 10-min before reperfusion, controls 23.0±6.1; for Total PVC's: during reperfusion, control 11.1±1.6%; for Infarct size, expressed as percent of left ventricle: controls 19.0±3.5. The method, then:
Compound 2 was tested in dogs subjected to a 60-min coronary artery occlusion and 4 hr reperfusion, as described by Hennan et al. ([…]., 317, 236-43 (2006)). Compound 2 was administered IV 10-min before reperfusion as a bolus+IV infusion at doses of: 0.25 μg/kg bolus+0.19 μg/kg/hr infusion (n=6); 2.5 μg/kg bolus+1.9 μg/kg/hr infusion (n=7); 25 μg/kg bolus+19 μg/kg/hr infusion (n=6); 75 μg/kg bolus+57 μg/kg/hr infusion (n=5); vehicle control (n=7). Premature ventricular complexes (PVC's) were quantified during reperfusion. Four or more consecutive PVC's was defined as ventricular tachycardia (VT).

The test system of series [2] is C6 glioma cells overexpressing connexin43. In words: In vitro cell swelling and dye uptake model (simulated ischemia). It counts as cell-based. The method, then: In this experiment, the effect of Compound 2 on calcein dye-uptake induced by metabolic inhibition in cultured C6 glioma cells overexpressing connexin43 was studied. Cells were incubated under control conditions and during simulated ischemia (SI) for 40 minutes in the presence of calcein (200 μM). Following incubation the cells were subjected to epifluorescence microscopy to determine the uptake of calcein. Incubation of C6 cells in SI medium increased dye-uptake to 5-fold above control values.

The mark [3] stands for this setting: first value (25 μg/kg bolus+19 μg/kg/hr infusion).
The mark [4] stands for this setting: second value (75 μg/kg bolus+57 μg/kg/hr infusion).

Take `NCC(=O)N1C[C@H](NC(=O)c2ccccc2)C[C@H]1C(=O)O` [Compound 2, (2S4R)1-(2-Amino-acetyl)-4-benzoylamino-pyrrolidine-2-carboxylic acid]: the “half-life in male rat liver microsomes” value is reported as “greater than 30 minutes”. Besides, the “Time to AV block” value in the series on Male CD-1 mice turned out to be 134.7 s. Further, in series [1] (setting [3]), the “Total incidence of VT” value worked out at 1.7±0.8 events; the “Total PVC's” value amounted to 2.0±0.7%; the “Infarct size, expressed as percent of left ventricle” value worked out at 7.9±1.5%. In series [1] (setting [4]), the “Total incidence of VT” value was determined as 2.2±1.4 events; the “Total PVC's” value was determined as 1.8±0.8%; the “Infarct size, expressed as percent of left ventricle” value is 7.1±0.8%. Moreover, in series [2] (100 μM compound, simulated ischemia 40 minutes, calcein 200 μM, p<0.05 vs. vehicle), the “relative reduction of the SI inducible calcein dye-uptake response” value is given as 32%. In addition, the “calcein dye-uptake during simulated ischemia” value in series [2] (C6 glioma cells overexpressing connexin43, simulated ischemia 40 minutes) was “dose-dependently inhibited”. Further, the “cell swelling during the 40 min stress period” value in series [2] (C6 glioma cells, control cells exhibited cell swelling) is listed as “did not”.
